Tests used:
JMJD2E (KDM4E) [1] = target: T1, JMJD2E (KDM4E) (Homo sapiens, UniProt B2RXH2); assay: MALDI-TOF MS activity assay; format: biochemical; details: 1 hour, 25 °C, pH 7.5, mass gain
T1 sequence (B2RXH2 1-506): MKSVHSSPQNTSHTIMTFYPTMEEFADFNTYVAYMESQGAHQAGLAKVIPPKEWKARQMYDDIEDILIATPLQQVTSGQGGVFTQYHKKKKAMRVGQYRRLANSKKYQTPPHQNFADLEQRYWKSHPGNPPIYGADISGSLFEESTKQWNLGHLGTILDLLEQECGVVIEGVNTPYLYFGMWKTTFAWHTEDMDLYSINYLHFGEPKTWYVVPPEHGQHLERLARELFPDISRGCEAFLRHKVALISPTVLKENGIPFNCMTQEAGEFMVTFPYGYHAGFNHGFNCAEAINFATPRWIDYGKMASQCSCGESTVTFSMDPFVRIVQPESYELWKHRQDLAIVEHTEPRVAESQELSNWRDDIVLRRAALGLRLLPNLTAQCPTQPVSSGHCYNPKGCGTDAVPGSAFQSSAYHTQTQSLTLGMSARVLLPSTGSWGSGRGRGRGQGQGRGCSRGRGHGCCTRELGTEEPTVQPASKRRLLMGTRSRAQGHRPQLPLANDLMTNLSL

JMJD2E (KDM4E) [2] = target: T1, JMJD2E (KDM4E); assay: Kinetic parameters for reactions of lysine analogue peptides with JMJD2E; format: biochemical; details: MALDI-TOF initial rates

mass of product greater than substrate peptide (hydroxylation) (JMJD2E (KDM4E) [1]) | Substance | KM, Vmax and kcat compared with other peptides (JMJD2E (KDM4E) [2])
16 Da | ART-Lys(Me3)-QTAR-Lys(Me/iPr)-STGGKA [H3 Lysine-9(Me/iPr)] | –
16 Da | ART-Lys(Me3)-QTAR-Lys(iPr)-STGGKA [H3 Lysine-9(iPr)] | higher than values for the other three peptides

From paper PMC3798130 (Angewandte Chemie (International Ed. in English), 2013)
